From patent publication US8236761B2, “C-Met receptor regulation by angiotensin IV (AT4) receptor ligands” (Washington State University Research Foundation, priority 2006, dated 2012)
Non-standard residues stand in square brackets, D forms with d. No end group written: not given here. Nle = CCCC[C@H](N)C(=O)O

Experiments:
[1] = test system: HEK293 cell membranes (c-Met system); experiment: 125I-Norleual binding assay, HEK293 cell membranes; set-up: species or system human; settings: 1.5 nM HGF or 1 μM Norleual
Method: (§1) FIG. 3C: ^125I-Norleual was bound to HEK membranes in the presence or absence of 1.5 nM HGF (n=8) or 1 μM Norleual (n=6). Total binding is reported as percent control (n=10), (*p<0.001). Error bars indicate±SD. […] Error bars indicate SD and data points were performed in duplicate.
^125I-Norleual binding assay. HEK293 cells were grown to confluency in DMEM fortified with 10% FBS. Media was aspirated and cells were washed twice with ice-cold PBS. Cells were lysed with hypotonic buffer and homogenized as described by Zhang et al. (1999, J. Pharmacol. Exp. Ther. 289: 1075-1083; 2003 J. Cell Biochem. 88: 408-417). 450 μg of membrane protein was incubated with 1.5 nM ^125I-Norleual with or without Norleual or HGF in a total volume of 250 μl PBS, 0.1% BSA. Tubes were spun and binding was carried out for 60 minutes at RT. Bound and free ligands were separated by vacuum filtration using (Brandel Cell Harvester, Schleicher & Schull, Keene, N.H., USA) 32 glass filters. Radioactivity retained by the filters was measured using a gamma counter. […] Data analysis was preformed using Prism software (GraphicPad) per the supplier's recommendations.
Materials and methods were as described in Example 1. In separate tests of unlabeled competitors, both Norleual and HGF competed with ^125I-HGF for high affinity binding to mouse liver plasma membranes (FIGS. 2A, 2B). […]

c-Met receptor = experiment: Cross-linking of 125I-COMPOUND 2 or 125I-HGF to HEK293 cell membranes with unlabeled competitor; format: binding, human; settings: cross-linked, 1 nM competitor
Method: as §1
Briefly, COMPOUND 2 was iodinated with […] and bound and cross-linked to HEK cell membranes with or without 1 nM COMPOUND 2 or 1 nM hepatocyte growth factor. Following solubilization and separation of free label by molecular sieving, total radioactive counts were determined. The ability of the ligand COMPOUND 2 to compete with hepatocyte growth factor binding to the c-Met receptor was also tested using mouse liver plasma membranes and intact HEK293 cells. Briefly, mouse liver was homogenized and incubated with ^125I-HGF with various concentrations of HGF or COMPOUND 2. Membranes were pelleted and unbound label was removed by washing, and total radioactive counts were determined. Next, HEK293 cell membranes were cross-linked with ^125I-HGF with unlabeled HGF or COMPOUND 2.

c-Met = c-Met (Homo sapiens, UniProt P08581); experiment: Immunoprecipitation/Western blot of HGF-dependent c-Met and Gab1 phosphorylation and association in HEK293 cells; format: cell-based; set-up: host or cells: HEK293; settings: HEK293 cells, 10 minutes
Method: (FIG. 5A) HEK293 cells were treated for 10 minutes with HGF at indicated concentrations. Lysates were immunoprecipitated (IP) with anti-c-Met antibody (DO-24) and immunoblotted (IB) with anti-c-Met or anti-phospho-tyrosine (06-427) antibody. (FIG. 5B) HEK293 cells were treated for 10 minutes with HGF and/or Norleual. Lysates were IP with anti-c-Met (DO-24) and IB with anti-c-Met (DQ-13) or anti-phospho-tyrosine (HAM 1676). (FIG. 5C) HEK293 lysates were IP with anti-c-Met (DO-24) and IB with anti-Gab1. (FIG. 5D) HEK 293 lysates were IP with anti-Gab1 and IB with anti-Gab1 or anti-phospho-tyrosine (HAM 1676). (FIGS. 5E, 5F, 5G) Relative amounts (normalized to % total c-Met in IP) of quantified IP/IB band intensities for control, 110 pM HGF-, 110 pM HGF and 20 pM Norleual-, and 20 pM Norleual-treated HEK293 cells for phospho-c-Met (FIG. 5E, n=4), phospho-Gab1 (FIG. 5F, n=4), and c-Met associated Gab1 (FIG. 5G, n=3). Error bars indicate ±SD.
HEK293 cells were treated for 10 minutes with HGF and/or Norleual at the indicated concentrations. Lysates were IP with anti-c-Met (DO-24, Millipore/Upstate, Billerica, Mass.) and IB with anti-c-Met (DQ-13, Millipore/Upstate) or anti-phosphotyrosine (HAM1676, lot JLB03, R&D Systems, Inc., Minneapolis, Minn.).
Immunoprecipitation and Western blotting. Cells were serum starved for two hours in DMEM before treatment. Cells were harvested using RIPA lysis buffer (Upstate Biotechnol. Inc., Lake Placid, N.Y.) with phosphatase inhibitor cocktails 1 and 2 (Sigma, St Louis, Mo., USA). Protein concentration was determined using the BCA assay (Pierce, Rockford, Ill., USA). Lysates were incubated with antibody overnight at 4° C. Immunoprecipitation controls received mouse non-specific Ig (Upstate). Proteins were captured with protein-A agarose (Upstate) and were washed with PBS. Proteins were resolved using SDS-PAGE electrophoresis (Criterion, BioRad, Hercules, Calif., USA), transferred to nitrocellulose, and incubated with appropriate antibodies. Proteins were visualized using the Supersignal West Pico Chemiluminescent Substrate system (Pierce). The film images were digitized and analyzed using TotalLab® software (AmershamPharmacia/GE HealthCare, Piscataway, N.J.).
Whether the interaction of Norleual with the c-Met receptor had functional consequences regarding c-Met signaling was next investigated by determining whether Norleual could alter the phosphorylation status of cellular protein tyrosine phosphate (FIG. 4) and more specifically, of c-Met (i.e., c-Met activation), and also whether Norleual could modulate Gab1 association with c-Met. Human embryonic kidney HEK293 cells were activated by HGF in the presence or absence of Norleual. Solubilized membranes were immunoprecipitated (IP) with an anti-c-Met antibody and immunoblotted (IB) for total c-Met, anti-phospho-tyrosine to detect the activated form of c-Met, and anti-Gab1 to detect c-Met/Gab1 association. […] To confirm these findings, treated HEK293 lysates were precipitated with anti-Gab1 and blotted for total Gab1 and phospho-Gab1, its activated form. Again, Norleual inhibited HGF-induced Gab1 phosphorylation (FIGS. 5D, […]).

neovascularization = experiment: Disc angiogenesis assay (subcutaneous sponge disc); format: in vivo, Sprague Dawley rats; settings: 50 μg per disc core, 14 days, rat
Method: FIG. 19 depicts effects on angiogenesis of angiotensin-like factors in a rat in vivo disc angiogenesis assay. Vascularization was quantified by digital image analysis of fixed and stained discs recovered from animals 14 days after subcutaneous implantation of sponge discs containing the indicated compounds.
Disc Angiogenesis Assay. […] A 2 mm core was removed from the center of each disc, saturated with 50 μg of Nle^1-AngIV (SEQ ID NO:41), Nle^1-Leu^3-Ψ(CH2NH2)^3-4-AngIV, Hexamide, or ethanol (control), air dried, then sealed using a fixative (Elvax, DuPont) to allow sustained delivery of the drug treatment into the disc and adjacent tissues. The cores were dried for 30 min, then reinserted into the sponge discs. Impermeable top and bottom covers were prepared by coating 10 mm diameter paper discs with a plexiglass coating, then glued to the top and bottom of the sponge discs, leaving only the rim of the disc available for centripetal cellular penetration. Just prior to implantation, the discs were soaked briefly in sterile saline.
Thirty-two Sprague Dawley female rats (225-275 gr) were used to evaluate four compounds for angiogenic or anti-angiogenic properties using the disc angiogenesis assay. Animals were anesthetized using sodium pentobarbital (40 mg/kg IP). The dorsum was then shaved and aseptically prepped. Each animal received four discs. Animals receiving treated discs were implanted with 2 treated discs and 2 ethanol-soaked control discs. Thus, in a group of 4 animals there were 8 treatment discs, and 8 control discs. These control discs were used to determine whether the ligand had potential systemic effects. Another group of 4 animals received only ethanol-soaked control discs (spontaneous growth controls or SGC discs) for an n=16. However, one SGC was fragmented during processing leaving an n=15.
Four 2 cm cutaneous incisions were made along the dorsum (left thoracic, right thoracolumbar, left thoracolumbar, and right lumbar), and subcutaneous pouches opened in the fascia using blunt dissection. Discs were moistened in sterile saline, inserted deep to the pouch, and the skin closed with sterile surgical staples. Animals were recovered under heat lamps until sternally recumbent, then individually housed for 14 days in an AAALAC accredited facility (water and food ad libitum; 12/12 hour light cycle).
After 14 days the animals were euthanized in a CO2 chamber and the discs were removed. […] Cellular penetration into the discs was quantified using a digital imaging system (Imaging Research Inc., St. Catharines, Ontario, Canada). The total area of the disc was calculated, as was the area containing stained cells. […]
Results. Following staining with toludine blue or Factor VIII, neovascularization was quantitated by densitometry.

human endothelial cells = experiment: Proliferation and migration of human endothelial cells; format: cell-based

c-Met, sequence (P08581 308-1390 limits assumed): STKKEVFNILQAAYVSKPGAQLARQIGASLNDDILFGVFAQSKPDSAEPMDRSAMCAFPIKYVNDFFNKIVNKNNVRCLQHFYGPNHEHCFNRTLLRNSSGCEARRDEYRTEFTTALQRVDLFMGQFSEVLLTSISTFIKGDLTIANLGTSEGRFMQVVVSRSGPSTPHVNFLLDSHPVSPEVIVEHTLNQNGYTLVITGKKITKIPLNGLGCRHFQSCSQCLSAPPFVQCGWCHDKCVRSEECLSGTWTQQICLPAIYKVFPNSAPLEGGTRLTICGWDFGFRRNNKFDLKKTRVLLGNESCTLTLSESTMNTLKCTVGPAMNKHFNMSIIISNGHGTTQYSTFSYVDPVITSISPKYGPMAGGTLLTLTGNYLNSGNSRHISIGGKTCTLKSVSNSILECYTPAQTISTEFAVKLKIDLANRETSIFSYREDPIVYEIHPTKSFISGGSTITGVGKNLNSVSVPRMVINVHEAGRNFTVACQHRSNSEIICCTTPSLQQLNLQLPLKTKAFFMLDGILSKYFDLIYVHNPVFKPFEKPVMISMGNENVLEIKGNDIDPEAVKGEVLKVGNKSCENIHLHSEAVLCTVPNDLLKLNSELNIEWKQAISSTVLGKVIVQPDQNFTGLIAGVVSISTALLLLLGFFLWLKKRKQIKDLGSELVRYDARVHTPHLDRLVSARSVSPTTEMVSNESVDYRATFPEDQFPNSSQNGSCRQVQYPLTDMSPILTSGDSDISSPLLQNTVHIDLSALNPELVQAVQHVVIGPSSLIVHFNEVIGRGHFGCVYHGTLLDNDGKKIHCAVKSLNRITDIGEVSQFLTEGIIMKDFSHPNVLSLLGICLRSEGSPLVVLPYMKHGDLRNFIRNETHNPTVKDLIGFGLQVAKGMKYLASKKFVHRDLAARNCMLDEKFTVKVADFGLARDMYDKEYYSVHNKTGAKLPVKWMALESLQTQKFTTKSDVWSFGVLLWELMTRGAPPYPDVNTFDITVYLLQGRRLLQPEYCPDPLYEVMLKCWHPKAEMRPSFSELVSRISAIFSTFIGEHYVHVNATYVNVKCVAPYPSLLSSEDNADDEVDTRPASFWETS
c-Met, sequence (P08581 25-307 limits assumed): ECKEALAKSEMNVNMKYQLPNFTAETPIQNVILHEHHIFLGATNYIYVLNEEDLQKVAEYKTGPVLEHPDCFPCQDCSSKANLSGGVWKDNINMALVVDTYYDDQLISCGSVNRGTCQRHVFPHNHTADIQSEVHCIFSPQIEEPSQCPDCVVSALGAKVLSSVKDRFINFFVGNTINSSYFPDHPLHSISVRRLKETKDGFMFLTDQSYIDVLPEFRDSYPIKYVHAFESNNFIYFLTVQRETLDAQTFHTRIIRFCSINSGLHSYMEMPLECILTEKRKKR

Concentration at which c-Met auto-phosphorylation saturates (c-Met) [pM] | Substance | Competition for 125I-Norleual specific binding to HEK293 cell membranes [1] | Effect on 125I-COMPOUND 2 binding to HEK cells (c-Met receptor) | Effect on angiogenesis in disc assay versus SGC discs (neovascularization) | Proliferation and migration of human endothelial cells (human endothelial cells)
550 | HGF: Hepatocyte growth factor (SEQ ID NO:83), purchased from R&D systems; native ligand of the c-Met receptor | competed | blocked |  | 
 | Nle-Tyr-Ile-6(amino) hexanoic acid amide [Compound 4] |  |  | antagonist activity | 
 | Nle-Tyr-Ile-His ([Nle]YIH) [Compound 3] |  |  | antagonist activity | 
 | Nle-Tyr-Ile-His-Pro-Phe ([Nle]YIHPF) [Compound 1] |  |  | lone AT4 receptor agonist | augmented
